In test [1] the test system is (5′CAG/3′GAC)x6; AAx6; AA × 6 (RNA, repeat) GGGAGAGGGUUUAAUCAGCAGCAGCAGCAGCAGUACGAAAGUACAGCAGCAGCAGCAGCAGAUUGGAUCCGCAAGG
Nature of the test: ITC. The conditions noted are these: 0.1 M NaCl; 10 mM Na2HPO4, EDTA, pH 7.2; two-site fit; nanomolar range stated.

The test system is the same in test [2]. The test can be described thus: UV melting. The conditions noted are these: Na+ 10 mM Na2HPO4 + 0.1 M NaCl (melting buffer not given; assumed same as CD/ITC buffer, which also has 50 mM EDTA); derived from two Tm (51.8, 57.9); D/N 2.0; per base.
For test [3] the test system is unchanged. The test can be described thus: fluorescence titration. The conditions noted are these: room temperature; two-site fit.
Test [4] deals with 5′r(CCGCAGCGG)3′ (RNA, mismatch bulge abasic) CCGCAGCGG
The test can be described thus: 1D and 2D NMR titration. The conditions noted are these: 298 K; D/N 0.0 to 2.0.

Take `Cc1cc2ccccc2nc1-c1ccccc1F`: the binding entry in test [1], in test [3] and in test [4] was “yes” each time. For the same compound, the dTm in test [2] was 6.1 °C.
